According to patent publication US11406589B2, “Cutibacterium granulosum strain, and composition comprising such strain or culture thereof for preventing or treating acne” (GENOME AND COMPANY, priority 2018, dated 2022):

Columns and labels:
[1] = test system: Cutibacterium acnes ATCC 6919; assay: Growth inhibition, overlay clear zone test; type: cell-based; conditions: overlay on RCM agar, about 72 hours; triclosan positive control 200 mg/ml
Text: (§1) The effect of growth inhibition of S. aureus and C. acnes was confirmed by observing formation of a clear zone. […] The experiment was progressed, expecting that S. aureus and C. acnes around Cutibacterium granulosum GENSC02 could not grow and they became transparent, if Cutibacterium granulosum GENSC02 had the effect of inhibiting the growth of bacteria. The Cutibacterium granulosum GENSC02 culture broth was collected with a platinum loop and was anaerobically cultured in a thin RCM agar plate at 37° C. for 72 hours by drawing a line about 2.5 cm. After confirming that Cutibacterium granulosum GENSC02 sufficiently grew, S. aureus and C. acnes strains adjusted to 10^4 cfu/ml were inoculated in 10 ml RCM agar at about 45° C. which was not yet solidified, and they were well suspended before the medium was hardened, and they were evenly solidified by pouring them on the agar plate in which Cutibacterium granulosum GENSC02 grew. In the solidified agar plate, S. aureus and C. acnes were further cultured anaerobically at 37° C. for about 40 hours and about 72 hours, respectively, to observe the size of the clear zone appearing around Cutibacterium granulosum GENSC02. As the negative control group, phosphate-buffered saline (PBS) was used, and as the positive control group, triclosan was used, and S. aureus and C. acnes were treated at an amount of 10 mg/ml and 200 mg/ml, respectively.

[2] = test system: Staphylococcus aureus KCTC 1621; assay: Growth inhibition, overlay clear zone test; type: cell-based; conditions: overlay on RCM agar, about 40 hours; triclosan positive control 10 mg/ml
Text: as §1

filaggrin = assay: Skin barrier function: filaggrin RNA expression in HaCaT cell line; type: cell-based, human; conditions: 24 hours, retinoic acid 1 μM (positive control)
[3] = test system: HAS3 (hyaluronic acid synthase); assay: Skin moisturizing function: HAS3 RNA expression in HaCaT cell line; type: cell-based, human; conditions: 24 hours, retinoic acid 1 μM (positive control)
Procedure: (§2) To investigate a function for a skin moisturizing effect by GENSCO2 fermented filtrates, it was confirmed that the fermented filtrates of GENSCO2 were treated to the HaCaT cell line by % to the cell culture solution, and then were reacted for 24 hours to confirm the expression of HAS3 (hyaluronic acid synthase) and aquaporin which were markers of the skin moisturizing function on RNA.

claudin-1 = assay: Skin barrier function: claudin-1 RNA expression in HaCaT cell line; type: cell-based, human; conditions: 24 hours, retinoic acid 1 μM (positive control)
aquaporin = assay: Skin moisturizing function: aquaporin RNA expression in HaCaT cell line; type: cell-based, human; conditions: 24 hours, retinoic acid 1 μM (positive control)
Procedure: as §2

SMILES	growth inhibition of C. acnes (clear zone) [1]	growth inhibition of S. aureus (clear zone) [2]	expression of filaggrin (filaggrin) [times]	expression of HAS3 (hyaluronic acid synthase) [3]	expression of claudin-1 (claudin-1) [times]	expression of aquaporin (aquaporin)
Oc1cc(Cl)ccc1Oc1ccc(Cl)cc1Cl [triclosan]	much smaller area than GENSC02 treatment	much smaller area than GENSC02 treatment				
CC1=C(/C=C/C(C)=C/C=C/C(C)=C/C(=O)O)C(C)(C)CCC1 [retinoic acid]			1.5	2˜4 times	1.5	2˜4 times
